The results in this text go back to patent US20050282743A1, “Molecular interactions in cells” (Arbor Vita Corporation, priority 2001, published 2005).

pKd: −log10 of the molar value. Values joined by “and” are separate entries in the source; they are usually repeats but may differ in a detail not shown here. Identical values can stand only once. Like-named read-outs stand apart in the source and are kept apart here. Peptide text beside a SMILES is read from it. * marks the point of attachment. Biotin = O=C1N[C@H]2[C@H](CS[C@H]2CCCCC(=O)*)N1

Assay [1] has as its target T1, DLG1(1-2) (Homo sapiens, UniProt Q12959).
T1 construct: made in house; host or cells: E. coli (DH5alpha, BL21 or JM109)
Nature of the assay: G assay peptide titration, dissociation constants (Example 3, TABLE 4). The following applies: biotinylated C-terminal 20-mer, 450 nm, 30 min. It is filed as binding. The method, then:
(§1) Binding between these molecules was assessed using a modified ELISA. Briefly, a GST-TIP-1 fusion was produced that contained the entire PDZ domain of human TIP-1 (Insert as in EXAMPLE 2). In addition, biotinylated peptides corresponding to the C-terminal 20 amino acids of Tax and CD95 were synthesized and purified by HPLC. Binding between these entities was detected through a colorimetric assay using avidin-HRP to bind the biotin and a peroxidase substrate (G-assay, as described supra). By titrating the amount of peptide and protein added to these reactions, dissociation constants (Kd) were determined as an indication of relative affinity of the peptide and fusion protein association.
(§2) (at last wash leave PBS in wells until immediately adding next step) • 6) Add proteins at 50 ul per well on ice (1 to 2 hrs at 4° C.) • 7) Prepare Peptides in 2% BSA (2 ml/row or /columns) • 8) 3× wash with cold PBS • 9) Add peptides at 50 ul per well on ice (time on/time off)
(§3) Using the protocol for the ‘G’ assay described above, dissociation constants were determined by titrating the amount of peptide against a set concentration of PDZ-containing protein. Kd values were determined by identifying the peptide concentration that gave half-maximal binding to the PDZ protein. Different concentrations of PDZ-containing protein were plated in order to achieve maximal peptide binding values that were less than the absorbance maximum of the ELISA plate reader.
(§4) Proteins on the left are GST fusions to the PDZ domain(s) of protein indicated. Numbers in parenthesis indicate the number of PDZ domains present in the fusion construct, from the amino-terminus of the first number listed to the carboxyl terminus of the second. PDZ Ligands are listed across the top of the table, representing biotinylated peptides corresponding to the carboxy-terminal 20 amino acids of each protein. The first three columns following the PDZ indicate the concentration of fusion protein plated for the G assay, followed by the wavelength and time of reading from addition of TMB substrate. 450 nm indicates a reaction halted by addition of sulfuric acid and absorbance read at 450 nm. Values beneath each ligand indicate first the maximum absorbance followed by the observed Kd in uM. Numbers in the squares are the average of duplicate or quadruplicate reactions. Blank squares indicate that the Kd for the interaction was not tested under those conditions on the same sample plate. No binding to GST alone is observed.

The target of assay [2] is T2, TIP-1 (GST-TIP-1 fusion) (Homo sapiens, UniProt O14907, I73S).
T2 construct: made in house; host or cells: E. coli DH5alpha
T2 sequence (O14907 3-123 I73S): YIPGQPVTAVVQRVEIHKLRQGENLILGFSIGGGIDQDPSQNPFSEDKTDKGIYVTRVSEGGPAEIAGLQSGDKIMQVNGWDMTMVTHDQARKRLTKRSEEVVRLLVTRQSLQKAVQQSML
The description is as above. It is filed as binding. As to conditions: for pKd / OD (maximum absorbance): biotinylated C-terminal 20-mer, 450 nm, 30 min. How it is done: as §1, §2, §3, §4

T1 sequence (Q12959 213-413 limits assumed): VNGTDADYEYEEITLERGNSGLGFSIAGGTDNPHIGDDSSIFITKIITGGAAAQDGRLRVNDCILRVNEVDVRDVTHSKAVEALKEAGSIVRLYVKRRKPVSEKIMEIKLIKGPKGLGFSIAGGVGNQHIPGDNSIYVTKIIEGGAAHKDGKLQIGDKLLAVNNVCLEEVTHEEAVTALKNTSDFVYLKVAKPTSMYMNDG

The term pKd denotes the Kd on a negative log10 scale, so that one unit is a factor of ten. On to `CC[C@H](C)[C@H](NC(=O)[C@H](CCC(N)=O)NC(=O)CCCC[C@@H]1SC[C@@H]2NC(=O)N[C@@H]21)C(=O)N[C@@H](CO)C(=O)N1CCC[C@H]1C(=O)NCC(=O)NCC(=O)N[C@@H](CC(C)C)C(=O)N[C@@H](CCC(=O)O)C(=O)N1CCC[C@H]1C(=O)N1CCC[C@H]1C(=O)N[C@@H](CO)C(=O)N[C@@H](CCC(=O)O)C(=O)N[C@@H](CCCCN)C(=O)N[C@@H](Cc1c[nH]cn1)C(=O)N[C@@H](Cc1ccccc1)C(=O)N[C@@H](CCCNC(=N)N)C(=O)N[C@@H](CCC(=O)O)C(=O)N[C@H](C(=O)N[C@@H](CCC(=O)O)C(=O)N[C@H](C(=O)O)C(C)C)[C@@H](C)O` [Tax], for which the pKd in assay [1] (Kd, DLG1(1-2) plated at 0.1 ug/ml) was 6.89 and 6.70; in assay [2] (Kd, TIP-1 plated at 0.1 ug/ml) it was 8.30. The “binding to TIP-1 relative to CD95 (comparison of dissociation constants)” value in assay [2] (Tax:TIP-1 versus CD95:TIP-1) is recorded as more than 3000 fold. In addition, the “OD (maximum absorbance)” value in assay [2] (TIP-1 plated at 0.1 ug/ml) is 3.3 and 2.1. Moreover, the “affinity for GST-TIP-1 relative to CD95 (FIG. 2A)” value in assay [2] (equivalent peptide concentrations, equivalent amount of GST-TIP-1) was “much higher affinity than does CD95”.
`CC[C@H](C)[C@H](NC(=O)[C@H](CCC(=O)O)NC(=O)[C@H](CC(N)=O)NC(=O)[C@H](CCCNC(=N)N)NC(=O)[C@H](Cc1ccccc1)NC(=O)[C@H](CC(N)=O)NC(=O)[C@H](CO)NC(=O)[C@H](CC(N)=O)NC(=O)[C@H](CCC(=O)O)NC(=O)[C@H](CO)NC(=O)[C@H](CC(=O)O)NC(=O)[C@H](CO)NC(=O)[C@@H](NC(=O)[C@@H](NC(=O)[C@H](CC(=O)O)NC(=O)[C@H](CCCCN)NC(=O)CCCC[C@@H]1SC[C@@H]2NC(=O)N[C@@H]21)[C@@H](C)CC)[C@@H](C)O)C(=O)N[C@@H](CCC(N)=O)C(=O)N[C@@H](CO)C(=O)N[C@@H](CC(C)C)C(=O)N[C@H](C(=O)O)C(C)C` [CD95] (Biotin-KDITSDSENSNFRNEIQSLV-OH; C-terminus assumed): the “OD (maximum absorbance)” value was 2.6 and 2.1 in assay [1] (DLG1(1-2) plated at 0.3 ug/ml); 2.6 and 3.5 in assay [2] (TIP-1 plated at 0.3 ug/ml). The pKd in assay [1] (DLG1(1-2) plated at 0.3 ug/ml, read-out: Kd) was 4.82 and 4.70; in assay [2] (TIP-1 plated at 0.3 ug/ml, read-out: Kd), 4.70 and 4.60.
